Source: US9382216B2, “Substituted morpholines as modulators for the calcium sensing receptor” (LUPIN LIMITED, priority 2011, dated 2016)
pEC50: −log10 of the molar value. Where a name gives a salt, the structure may show the parent alone.

Biological target: T1, hCaSR (Calcium sensing receptor) in stably transfected HEK293 cells (Homo sapiens, UniProt P41180)
T1 construct: expressed in transfected cells; host or cells: HEK293 (stably transfected)
T1 sequence (P41180 20-1078): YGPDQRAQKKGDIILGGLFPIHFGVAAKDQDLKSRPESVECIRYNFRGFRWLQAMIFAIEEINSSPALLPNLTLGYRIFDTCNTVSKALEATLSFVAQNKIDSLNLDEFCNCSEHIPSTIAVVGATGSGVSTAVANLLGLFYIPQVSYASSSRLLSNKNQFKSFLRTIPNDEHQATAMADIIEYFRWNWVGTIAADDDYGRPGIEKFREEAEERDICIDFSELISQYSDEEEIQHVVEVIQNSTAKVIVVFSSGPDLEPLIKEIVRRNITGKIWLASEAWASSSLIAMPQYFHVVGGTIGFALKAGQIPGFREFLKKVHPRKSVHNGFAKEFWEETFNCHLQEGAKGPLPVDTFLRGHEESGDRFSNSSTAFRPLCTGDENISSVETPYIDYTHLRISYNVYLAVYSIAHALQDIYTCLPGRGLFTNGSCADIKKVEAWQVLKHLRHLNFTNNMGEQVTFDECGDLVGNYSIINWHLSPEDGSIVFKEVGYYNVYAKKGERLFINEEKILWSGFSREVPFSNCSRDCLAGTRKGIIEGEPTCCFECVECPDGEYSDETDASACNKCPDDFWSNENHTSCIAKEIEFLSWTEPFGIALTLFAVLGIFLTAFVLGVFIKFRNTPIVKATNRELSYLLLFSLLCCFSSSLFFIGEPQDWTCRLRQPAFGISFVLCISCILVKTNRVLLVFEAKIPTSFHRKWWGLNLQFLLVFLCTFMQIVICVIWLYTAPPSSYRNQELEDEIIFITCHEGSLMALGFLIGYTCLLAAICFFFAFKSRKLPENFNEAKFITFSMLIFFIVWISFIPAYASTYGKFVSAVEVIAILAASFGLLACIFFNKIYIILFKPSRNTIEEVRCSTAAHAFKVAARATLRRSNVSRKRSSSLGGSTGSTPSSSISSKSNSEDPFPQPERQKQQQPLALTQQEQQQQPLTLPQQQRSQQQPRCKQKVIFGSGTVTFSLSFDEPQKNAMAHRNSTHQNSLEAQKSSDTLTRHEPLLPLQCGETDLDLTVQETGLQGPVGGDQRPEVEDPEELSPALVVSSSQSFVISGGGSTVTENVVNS
Experiment: In-vitro assay of calcimimetics through modulation of calcium sensing receptor (CaSR): increase in intracellular calcium, FLIPR
Type: cell-based
Details: HEK293 cells expressing hCaSR; intracellular calcium (Fluo4NW, FLIPR); 0.3 mM CaCl2; 8-point assay; read-out: EC50 in range
Description: In-Vitro Assay Method of Calcimemtics Through Modulation of Calcium Sensing Receptor (CaSR):
The ability of the compounds to modulate Calcium sensing receptor is determined by measuring an increase in intracellular calcium [Ca^2+i]. Stably transfected HEK293 cells expressing hCaSR_pTriEx-3 hygro vector are developed. Cells are grown overnight on a 96-well plate to 80% confluency in Ham's F12 containing 20% FBS at 37° C., 5% CO2 Subsequently, cells are washed extensively with 20 mM HEPES buffer containing 126 mM NaCl2, 1 mM MgCl2 and 4 mM KCl2 to remove serum components that might interfere with the assay. Cells are loaded with calcium sensing Fluo4NW dye in HEPES base buffer containing 0.1% BSA and 1 mg/ml glucose for 30 minutes to measure changes in intracellular calcium. The activities of the compounds are measured in FLIPR using 0.3 mM CaCl2 in 20 mM HEPES base buffer. The effectiveness of the compound to modulate receptor activity is determined by calculating the EC50 responses for that compound in an 8-point assay and plotted using GraphPad Prism 5.
The compounds prepared were tested using the above assay procedure and the results obtained are given below.

**Q.** With `Cc1cccc(N2CCOCC2CN[C@H](C)c2cccc3ccccc23)c1` (stereo partly drawn) [Example 120, (1R)-1-(Naphthalen-1-yl)-N-((4-(m-tolyl)morpholin-3-yl)methyl)ethanamine hydrochloride] as the compound, how does the pEC50 read?
**A.** Its pEC50 is over 7.70.

**Q.** `COc1cccc([C@@H](C)NCC2CN(c3cccc(C)c3)CCO2)c1` (stereo partly drawn) [Example 134, (1R)-1-(3-Methoxyphenyl)-N-((4-(m-tolyl)morpholin-2-yl)methyl)ethanamine hydrochloride] was tested. Which pEC50 did it give?
**A.** Its pEC50 is over 7.70.

**Q.** With `COc1cccc([C@@H](C)NCC2CN(c3ccc(F)c(F)c3)CCO2)c1` (stereo partly drawn) [Example 135, (1R)-N-((4-(3,4-Difluorophenyl)morpholin-2-yl)methyl)-1-(3-methoxyphenyl)ethanamine hydrochloride] as the compound, how does the pEC50 read?
**A.** Its pEC50 is over 7.70.

**Q.** `C[C@@H](NCC1CN(c2ccc(C(=O)O)cc2)CCO1)c1cccc2ccccc12` (stereo partly drawn) [Example 147, 4-(2-((((R)-1-(Naphthalen-1-yl)ethyl)amino)methyl)morpholino)benzoic acid hydrochloride] was tested. Which pEC50 did it give?
**A.** The pEC50 was 6.70 to 7.30.

**Q.** With `C[C@@H](NCC1CN(c2cccc(F)c2)CCO1)c1cccc2ccccc12` (stereo partly drawn) [Example-3, (1R)-N-((4-(3-Fluorophenyl)morpholin-2-yl)methyl)-1-(naphthalen-1-yl)ethanamine hydrochloride] as the compound, how does the pEC50 read?
**A.** Its pEC50 is 7.30 to 7.70.

**Q.** `C[C@@H](NCC1COCCN1c1cccc(F)c1)c1cccc2ccccc12` (stereo partly drawn) [Example-9] was tested. Which pEC50 did it give?
**A.** The pEC50 was over 7.70.

**Q.** How did the pEC50 turn out when `COc1cccc([C@@H](C)NCC2CN(c3ccc(OC)c(F)c3)C(=O)CO2)c1` (stereo partly drawn) [Example-50, 4-(3-Fluoro-4-methoxyphenyl)-6-((((R)-1-(3-methoxyphenyl)ethyl)amino)methyl)morpholin-3-one] was run?
**A.** Its pEC50 is 7.30 to 7.70.

**Q.** `COc1cccc([C@@H](C)NCC2COCCN2c2ccc(C)cc2)c1` (stereo partly drawn) [compound 8] was tested. Which pEC50 did it give?
**A.** The pEC50 was 6.70 to 7.30.

**Q.** `COc1cccc([C@@H](C)NCC2COCCN2c2ccc(F)c(F)c2)c1` (stereo partly drawn) [compound 12] was tested. Which pEC50 did it give?
**A.** Its pEC50 is 6.70 to 7.30.

**Q.** With `COc1cccc([C@@H](C)NCC2COCCN2c2cccc(F)c2)c1` (stereo partly drawn) [compound 15] as the compound, how does the pEC50 read?
**A.** Its pEC50 is 7.30 to 7.70.

**Q.** With `C[C@@H](NCC1COCCN1c1ccc(F)cc1)c1cccc2ccccc12` (stereo partly drawn) [compound 17] as the compound, how does the pEC50 read?
**A.** Its pEC50 is 7.30 to 7.70.

**Q.** How did the pEC50 turn out when `C[C@@H](NCC1CN(c2cccc(C(F)(F)F)c2)CCO1)c1cccc2ccccc12` (stereo partly drawn) [compound 22] was run?
**A.** Its pEC50 is 7.30 to 7.70.

**Q.** `C[C@@H](NCC1CN(c2ccc(F)cc2)CCO1)c1cccc2ccccc12` (stereo partly drawn) [compound 28] was tested. Which pEC50 did it give?
**A.** The pEC50 was over 7.70.

**Q.** `COc1cccc([C@@H](C)NCC2CN(c3ccccc3)CCO2)c1` (stereo partly drawn) [compound 32] was tested. Which pEC50 did it give?
**A.** Its pEC50 is 6.70 to 7.30.

**Q.** How did the pEC50 turn out when `C[C@@H](NCC1CN(c2cccc(F)c2F)C(=O)CO1)c1cccc2ccccc12` (stereo partly drawn) [compound 54, 4-(2,3-Difluorophenyl)-6-((((R)-1-(naphthalen-1-yl)ethyl)amino)methyl)morpholin-3-one hydrochloride] was run?
**A.** Its pEC50 is over 7.70.

**Q.** With `C[C@@H](NCC1CN(c2ccc3c(c2)OC(F)(F)O3)C(=O)CO1)c1cccc2ccccc12` (stereo partly drawn) [compound 59, 4-(2,2-Difluorobenzo[d][1,3]dioxol-5-yl)-6-((((R)-1-(naphthalen-1-yl)ethyl)amino)methyl)morpholin-3-one hydrochloride] as the compound, how does the pEC50 read?
**A.** Its pEC50 is 7.30 to 7.70.

**Q.** How did the pEC50 turn out when `C[C@@H](NCC1CN(c2ccc(CC(=O)O)cc2)C(=O)CO1)c1cccc2ccccc12` (stereo partly drawn) [compound 60, 2-(4-(2-((((R)-1-(Naphthalen-1-yl)ethyl)amino)methyl)-5-oxomorpholino)phenyl)acetic acid hydrochloride] was run?
**A.** Its pEC50 is 6.70 to 7.30.

**Q.** `COc1ccc(N2CC(CN[C@H](C)c3cccc4ccccc34)OCC2=O)cc1F` (stereo partly drawn) [compound 61, 4-(3-Fluoro-4-methoxyphenyl)-6-((((R)-1-(naphthalen-1-yl)ethyl)amino)methyl)morpholin-3-one hydrochloride] was tested. Which pEC50 did it give?
**A.** The pEC50 was over 7.70.
